These results are taken from patent US11173146B2, “Selective activators of the intermediate conductance CA2+activated K+ channel KCa3.1 and their methods of use” (The Regents of the University of California, priority 2014, dated 2021).

Molecules are shown by their SMILES. Entries after “also recorded” stand apart in the source; their conditions may differ.

Series [1] has as its target T1, mKV1.3 (Mus musculus, UniProt P16390).
T1 construct: expressed in transfected cells; host or cells: L929
In words: KV1.3 current inhibition (L929 cells). Format: cell-based. An excerpt: (§1) Cells, Cell lines and Clones. HEK-293 cells stably expressing hKCa2.1, rKCa2.2 and hKCa3.1 were obtained from Khaled Houamed (University of Chicago, Ill.) in 2002 and have been maintained in the Wulff laboratory at the University of California since then. The cloning of hKCa2.3 (19 CAG repeats) and hKCa3.1 has been previously described (Wulff et al., 2000). The hKCa2.3 clone was later stably expressed in COS-7 cells at Aurora Biosciences Corp., San Diego, Calif. […]
(§2) Electrophysiology. […] For manual experiments COS-7, HEK-293 or L929 cells were trypsinized, plated onto poly-L-lysine coated coverslips and typically recorded from between 20 min and 4 h after plating. […] Free Ca^2+ concentrations were calculated with MaxChelator assuming a temperature of 25° C., a pH of 7.2 and an ionic strength of 160 mM. To reduce contaminating currents from native chloride channels in COS-7 cells, KCa2.3 currents were recorded with an internal pipette solution containing (in mM): 145 K^+ aspartate, 2 MgCl2, 10 HEPES, 10 EGTA and 7.4 CaCl2 (500 nM free Ca^2+), pH 7.2, 290-310 mOsm. […] KV2.1, Kv1.3, and KV3.1 currents were recorded in normal Ringer solution with a Ca^2+-free KF-based pipette solution as previously described (Schmitz et al., 2005). HERG (KV11.1) currents were recorded with a 2-step pulse from −80 mV first to 20 mV for 1 sec and then to −50 mV for 1 sec. […]

Series [2] has as its target T2, KV11.1 (hERG) (Homo sapiens, UniProt Q12809).
T2 construct: host or cells: HEK-293
In words: KV11.1 (hERG) current inhibition (HEK-293). The format is cell-based.
From the text: as §1, §2

For series [3], the target named is T3, mNaV1.2 (Mus musculus, UniProt B1AWN6).
T3 construct: NaV1.2 currents from N1E-115 cells; host or cells: N1E-115 mouse neuroblastoma
In words: NaV1.2 current inhibition (N1E-115 cells). The format is cell-based.

Series [4] has as its target T4, hNaV1.5 (Homo sapiens, UniProt Q14524).
T4 construct: host or cells: HEK-293
In words: NaV1.5 current inhibition (HEK-293). Format: cell-based. As to conditions: HEK293.

The target of series [5] is T5, hCaV1.2 (Homo sapiens, UniProt Q13936).
T5 construct: host or cells: HEK-293
In words: CaV1.2 current inhibition (HEK-293). The format is cell-based. The conditions noted are these: HEK293.

Series [6] deals with L-NAME-treated moderately hypertensive mice. The experiment in a line: Telemetry in L-NAME-treated hypertensive mice. The format is in vivo, mouse. The procedure: Telemetry. […] Maximal injection volume was ≤600 μl. […] Data were analyzed using the DSI software.
In contrast, SKA-121 at 100 mg/kg produced a significant drop in MAP by ˜25 mm Hg over 6 h.

T3 sequence (B1AWN6 whole entry): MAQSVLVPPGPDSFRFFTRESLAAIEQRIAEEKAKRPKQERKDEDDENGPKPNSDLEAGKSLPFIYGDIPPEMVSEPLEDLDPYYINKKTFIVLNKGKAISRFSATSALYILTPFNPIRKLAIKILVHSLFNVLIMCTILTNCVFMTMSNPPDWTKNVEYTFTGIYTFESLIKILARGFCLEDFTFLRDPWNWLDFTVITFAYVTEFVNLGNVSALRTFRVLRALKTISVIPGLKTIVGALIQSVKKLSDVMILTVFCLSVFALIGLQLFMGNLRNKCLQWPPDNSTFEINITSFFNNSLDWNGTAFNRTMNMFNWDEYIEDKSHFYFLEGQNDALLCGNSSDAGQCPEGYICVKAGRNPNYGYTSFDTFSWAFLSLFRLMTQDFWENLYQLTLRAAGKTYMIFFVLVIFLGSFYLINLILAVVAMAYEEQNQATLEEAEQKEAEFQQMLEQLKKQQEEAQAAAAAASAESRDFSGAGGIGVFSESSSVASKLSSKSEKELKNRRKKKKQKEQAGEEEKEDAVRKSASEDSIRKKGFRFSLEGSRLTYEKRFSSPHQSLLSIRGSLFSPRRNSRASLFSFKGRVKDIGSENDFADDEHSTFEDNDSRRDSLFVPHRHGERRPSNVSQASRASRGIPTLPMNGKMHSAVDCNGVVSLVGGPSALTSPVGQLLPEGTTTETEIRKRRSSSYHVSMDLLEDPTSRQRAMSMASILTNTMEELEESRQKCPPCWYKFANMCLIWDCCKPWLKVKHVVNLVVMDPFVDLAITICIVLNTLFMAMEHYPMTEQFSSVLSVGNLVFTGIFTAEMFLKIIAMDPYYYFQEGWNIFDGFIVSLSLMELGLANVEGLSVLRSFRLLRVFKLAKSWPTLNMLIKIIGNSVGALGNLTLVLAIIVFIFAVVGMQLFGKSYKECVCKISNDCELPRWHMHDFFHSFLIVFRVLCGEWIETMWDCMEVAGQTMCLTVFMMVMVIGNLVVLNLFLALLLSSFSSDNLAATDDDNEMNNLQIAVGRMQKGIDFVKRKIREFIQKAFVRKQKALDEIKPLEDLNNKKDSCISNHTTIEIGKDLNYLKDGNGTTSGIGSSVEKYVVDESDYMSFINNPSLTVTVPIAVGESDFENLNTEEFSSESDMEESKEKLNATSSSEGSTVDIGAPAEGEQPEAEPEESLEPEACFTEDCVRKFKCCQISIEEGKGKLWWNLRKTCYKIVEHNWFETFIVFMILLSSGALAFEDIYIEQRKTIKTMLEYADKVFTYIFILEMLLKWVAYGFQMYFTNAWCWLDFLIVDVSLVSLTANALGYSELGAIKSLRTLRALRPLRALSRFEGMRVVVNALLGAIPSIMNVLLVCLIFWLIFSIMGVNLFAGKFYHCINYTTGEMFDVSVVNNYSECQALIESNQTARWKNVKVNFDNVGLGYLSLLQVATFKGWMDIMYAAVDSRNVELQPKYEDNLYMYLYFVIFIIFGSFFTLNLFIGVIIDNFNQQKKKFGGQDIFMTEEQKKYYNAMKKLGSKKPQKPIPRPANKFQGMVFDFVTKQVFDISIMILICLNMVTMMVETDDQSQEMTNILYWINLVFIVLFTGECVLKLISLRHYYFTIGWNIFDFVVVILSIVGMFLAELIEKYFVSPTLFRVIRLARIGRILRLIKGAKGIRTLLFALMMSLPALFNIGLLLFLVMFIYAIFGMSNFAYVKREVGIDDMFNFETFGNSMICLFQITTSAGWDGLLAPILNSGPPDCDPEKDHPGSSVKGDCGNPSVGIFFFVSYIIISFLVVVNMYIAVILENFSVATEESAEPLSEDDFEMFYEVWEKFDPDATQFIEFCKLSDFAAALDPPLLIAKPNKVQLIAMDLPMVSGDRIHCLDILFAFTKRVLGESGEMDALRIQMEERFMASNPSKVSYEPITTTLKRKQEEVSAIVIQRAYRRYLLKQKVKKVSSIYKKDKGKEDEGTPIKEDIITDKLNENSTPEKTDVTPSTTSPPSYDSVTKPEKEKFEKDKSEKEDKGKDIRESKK
T5 sequence (Q13936 whole entry): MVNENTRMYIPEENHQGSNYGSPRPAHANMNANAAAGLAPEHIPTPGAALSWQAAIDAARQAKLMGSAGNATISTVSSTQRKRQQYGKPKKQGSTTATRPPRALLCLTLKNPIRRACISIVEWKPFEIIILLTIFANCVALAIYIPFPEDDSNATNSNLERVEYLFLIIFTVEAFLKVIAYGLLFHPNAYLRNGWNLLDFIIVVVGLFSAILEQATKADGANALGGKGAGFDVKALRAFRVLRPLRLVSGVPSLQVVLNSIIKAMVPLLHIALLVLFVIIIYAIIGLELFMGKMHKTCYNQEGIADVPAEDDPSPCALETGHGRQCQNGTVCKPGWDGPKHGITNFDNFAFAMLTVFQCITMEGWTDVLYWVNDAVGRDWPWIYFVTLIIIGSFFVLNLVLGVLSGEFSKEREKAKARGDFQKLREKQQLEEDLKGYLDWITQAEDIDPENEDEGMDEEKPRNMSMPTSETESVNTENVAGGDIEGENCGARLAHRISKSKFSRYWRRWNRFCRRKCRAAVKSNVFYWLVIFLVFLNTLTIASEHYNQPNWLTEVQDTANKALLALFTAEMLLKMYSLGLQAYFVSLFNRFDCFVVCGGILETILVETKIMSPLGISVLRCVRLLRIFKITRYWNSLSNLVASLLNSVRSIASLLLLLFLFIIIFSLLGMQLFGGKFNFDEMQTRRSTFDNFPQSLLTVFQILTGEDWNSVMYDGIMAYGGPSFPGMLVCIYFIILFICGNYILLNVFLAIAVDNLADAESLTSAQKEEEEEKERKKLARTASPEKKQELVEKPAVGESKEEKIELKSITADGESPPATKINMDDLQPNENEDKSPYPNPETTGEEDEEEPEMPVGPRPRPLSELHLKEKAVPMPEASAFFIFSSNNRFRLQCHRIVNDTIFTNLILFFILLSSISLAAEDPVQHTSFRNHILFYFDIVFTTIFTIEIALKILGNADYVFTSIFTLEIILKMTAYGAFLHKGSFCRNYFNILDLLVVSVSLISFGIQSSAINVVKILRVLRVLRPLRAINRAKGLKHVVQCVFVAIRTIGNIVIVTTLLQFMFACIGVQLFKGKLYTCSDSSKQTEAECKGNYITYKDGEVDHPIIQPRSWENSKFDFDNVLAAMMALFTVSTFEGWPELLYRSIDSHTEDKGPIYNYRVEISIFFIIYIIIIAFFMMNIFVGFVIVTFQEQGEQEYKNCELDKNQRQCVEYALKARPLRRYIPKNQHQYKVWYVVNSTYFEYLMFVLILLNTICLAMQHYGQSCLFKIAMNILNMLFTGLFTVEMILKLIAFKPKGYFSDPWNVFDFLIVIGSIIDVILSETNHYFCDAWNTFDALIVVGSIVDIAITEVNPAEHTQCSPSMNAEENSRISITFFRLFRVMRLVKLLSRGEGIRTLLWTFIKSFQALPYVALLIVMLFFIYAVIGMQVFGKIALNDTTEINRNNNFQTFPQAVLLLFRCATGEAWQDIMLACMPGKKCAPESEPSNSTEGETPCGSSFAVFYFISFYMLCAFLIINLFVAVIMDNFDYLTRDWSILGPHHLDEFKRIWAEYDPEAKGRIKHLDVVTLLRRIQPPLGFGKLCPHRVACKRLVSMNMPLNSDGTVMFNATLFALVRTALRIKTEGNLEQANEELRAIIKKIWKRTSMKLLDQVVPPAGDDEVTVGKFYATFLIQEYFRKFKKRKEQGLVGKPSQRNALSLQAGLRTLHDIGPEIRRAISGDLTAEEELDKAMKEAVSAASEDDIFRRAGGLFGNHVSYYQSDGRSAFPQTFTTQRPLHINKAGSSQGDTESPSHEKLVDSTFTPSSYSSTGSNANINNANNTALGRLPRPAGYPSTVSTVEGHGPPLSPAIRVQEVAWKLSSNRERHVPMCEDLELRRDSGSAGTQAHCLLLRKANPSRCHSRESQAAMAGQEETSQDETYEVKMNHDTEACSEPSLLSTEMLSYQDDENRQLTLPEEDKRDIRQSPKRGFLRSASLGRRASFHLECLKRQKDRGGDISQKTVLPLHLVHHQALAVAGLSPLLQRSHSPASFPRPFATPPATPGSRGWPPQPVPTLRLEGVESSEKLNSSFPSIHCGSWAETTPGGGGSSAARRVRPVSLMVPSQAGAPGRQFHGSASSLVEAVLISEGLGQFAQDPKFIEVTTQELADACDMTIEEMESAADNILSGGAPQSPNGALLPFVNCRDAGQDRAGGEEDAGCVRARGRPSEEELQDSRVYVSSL
T1 sequence (P16390 whole entry): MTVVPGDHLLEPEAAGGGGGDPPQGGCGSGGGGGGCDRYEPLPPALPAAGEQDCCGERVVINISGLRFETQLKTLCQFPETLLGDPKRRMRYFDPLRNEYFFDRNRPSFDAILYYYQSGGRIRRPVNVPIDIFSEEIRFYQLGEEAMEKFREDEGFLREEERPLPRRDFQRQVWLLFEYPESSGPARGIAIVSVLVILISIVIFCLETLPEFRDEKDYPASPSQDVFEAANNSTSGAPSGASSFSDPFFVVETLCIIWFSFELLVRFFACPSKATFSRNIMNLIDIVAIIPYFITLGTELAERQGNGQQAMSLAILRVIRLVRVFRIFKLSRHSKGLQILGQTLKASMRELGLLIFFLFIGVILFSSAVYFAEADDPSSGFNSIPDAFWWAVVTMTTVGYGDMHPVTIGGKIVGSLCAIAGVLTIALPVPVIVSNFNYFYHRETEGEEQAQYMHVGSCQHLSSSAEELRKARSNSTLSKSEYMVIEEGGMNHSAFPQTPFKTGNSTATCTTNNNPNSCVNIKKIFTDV

As for `Cc1cc2nc(N)oc2c2ccccc12` [SKA-121, 5-Methylnaphtho[2,1-d]oxazol-2-amine], the inhibition at 50 µM was found to be 27.5 ± 7.2% in series [1] (at 50 μM), 15.2 ± 12.7% in series [3] (at 50 μM), 32.1 ± 11.1% in series [4] (at 50 μM) and 48.9 ± 2.7% in series [5] (at 50 μM). Further, in series [2] (at 50 μM), the “KV11.1 (hERG) % current inhibition” value was 16.7 ± 9.7%. Also, the “HR” value in series [6] (100 mg/kg i.p.) is “remained virtually stable; also recorded: minor decrease”. In series [6] (100 mg/kg i.p.), the “drop in MAP” value is recorded as around 25 mm Hg. Further, in series [6] (100 mg/kg i.p.), the “duration of MAP drop” value stood at 6 h. In series [6] (100 mg/kg i.p., FIG. 6B), the “blood pressure” value was “reduced blood pressure”.
Turning to `Cc1cc2sc(N)nc2c2ccccc12` [SKA-111, 5-methylnaphtho[1,2-d]thiazol-2-amine], the inhibition at 25 µM in series [1] (at 25 μM) came out at 28.5 ± 2.3%; in series [3] (at 25 μM), 19.5 ± 6.9%; in series [4] (at 25 μM), 39.9 ± 11.1%; in series [5] (at 25 μM), 49.5 ± 17%. Also, in series [2] (at 25 μM), the “KV11.1 (hERG) % current inhibition” value was found to be 10.1 ± 7.7%. The “HR” value in series [6] (60 mg/kg i.p.) is recorded as “remained virtually stable; also recorded: only a minor drop”. The “MAP” value in series [6] (60 mg/kg i.p.) was “reduced blood pressure; also recorded: only a minor drop”.
